Consider eleven compounds from ChEMBL document CHEMBL1201862, “PubChem BioAssay data set” (2004).

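Five compound concentrations were applied to cells in 96-well plates for 48 hours; endpoints were derived by simple linear interpolation of the resulting dose-response curve. At the GI50, growth is halved.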 The source made the active and inactive calls. No stated cut-off is given here; in the data, active = GI50 up to about 1.1 µM and inactive = higher. Some results are limits rather than exact numbers.

Test systems include A549; COLO 205; EKVX; HCC 2998; HCT-116; HCT-15; HL-60; HOP-92; IGROV-1; KM12; MOLT-4; NCI-H23; OVCAR-3; SK-MEL-28; SK-MEL-2; SK-MEL-5; UACC-257; UACC-62; HOP-62; RPMI-8226.
Common to all, as to experiment: NCI anticancer screen, dose series, 48 h

Take `CC(C)(C)CI`: the GI50 with A549 is 25.6 µM (inactive); with COLO 205, 22.2 µM (inactive); in the experiment with EKVX, 61.5 µM (inactive); in the experiment with HCC 2998, 19.4 µM (inactive); in the experiment on HCT-116, 18.5 µM (inactive); in the experiment on HCT-15 it was 33 µM. Also, the GI50 in the experiment with HL-60 was 22.9 µM (inactive); with HOP-92, 26.2 µM (inactive); with IGROV-1, > 100 µM (inactive); in the experiment on KM12, 25.7 µM (inactive); with MOLT-4 it was 37.2 µM (inactive); in the experiment on NCI-H23, 55.6 µM (inactive). In addition, the GI50 was 19.1 µM (inactive) in the experiment on OVCAR-3; 50.6 µM (inactive) in the experiment with SK-MEL-28; 19.8 µM (inactive) in the experiment on SK-MEL-2; 16.9 µM (inactive) with SK-MEL-5; 21.2 µM (inactive) with UACC-257; 29.9 µM (inactive) in the experiment with UACC-62.

Consider `O=C1C=C[C@@H](COC2OC(CO)C(O)C(O)C2O)O1` (some centres not stated), for which the GI50 is 22 µM (inactive) with A549; 6.98 µM (inactive) in the experiment with COLO 205; 20.4 µM (inactive) in the experiment on EKVX; 40 µM (inactive) in the experiment on HCC 2998; > 100 µM (inactive) in the experiment with HCT-116; 3.69 µM with HCT-15. Further, the GI50 is 1.72 µM (inactive) with HL-60; 56.2 µM (inactive) in the experiment with HOP-62; 20.5 µM (inactive) in the experiment on HOP-92; 27.6 µM (inactive) in the experiment with IGROV-1; 4.95 µM (inactive) in the experiment on KM12; 4.39 µM (inactive) in the experiment on MOLT-4. For the same compound, the GI50 was 10.9 µM (inactive) in the experiment with NCI-H23; 16.8 µM (inactive) in the experiment with OVCAR-3; 3.16 µM (inactive) in the experiment on RPMI-8226; > 100 µM (inactive) in the experiment with SK-MEL-28; 13.6 µM (inactive) in the experiment on SK-MEL-2; 17.8 µM (inactive) in the experiment on SK-MEL-5. The results for the GI50 with UACC-257 and with UACC-62 were 14.3 µM (inactive) and 10.2 µM (inactive), respectively.

For `O=C1/C(=C\c2cccc(Oc3ccccc3)c2)SC(c2ccccc2)N1c1cccc([N+](=O)[O-])c1` (configuration not stated), the GI50 in the experiment on A549 was > 100 µM (inactive); in the experiment with COLO 205, > 100 µM (inactive); in the experiment with EKVX it was > 100 µM (inactive); with HCC 2998 it was > 100 µM (inactive); in the experiment with HCT-116, 32.7 µM (inactive); in the experiment with HCT-15, more than 100 µM. Moreover, the GI50 in the experiment on HOP-62 is > 100 µM (inactive); in the experiment on HOP-92, 45.7 µM (inactive); with KM12, 72.1 µM (inactive); in the experiment on MOLT-4 it was 40.7 µM (inactive); in the experiment with NCI-H23 it was > 100 µM (inactive); in the experiment with OVCAR-3, > 100 µM (inactive). Further, the GI50 in the experiment on RPMI-8226 was 34.7 µM (inactive); with SK-MEL-28, > 100 µM (inactive); with SK-MEL-2, > 100 µM (inactive); in the experiment on SK-MEL-5, 42.8 µM (inactive); in the experiment on UACC-257, 97.3 µM (inactive); in the experiment with UACC-62 it was 60.1 µM (inactive).

For `CC1(C)CCCC2(C)[C@@H]1CC[C@]13C[C@](C)(CC[C@@H]21)[C@@H]3CO` (some centres not stated), the GI50 in the experiment with A549 is > 100 µM (inactive); with COLO 205, > 100 µM (inactive); with HCC 2998, > 100 µM (inactive); with HCT-116 it was > 100 µM (inactive); in the experiment on HCT-15, more than 100 µM; with HL-60, > 100 µM (inactive). Also, the GI50 with HOP-62, in the experiment on HOP-92, in the experiment on IGROV-1, in the experiment on KM12, in the experiment with MOLT-4 and with NCI-H23 was > 100 µM (inactive) in each case. The GI50 in the experiment on OVCAR-3, in the experiment on RPMI-8226, in the experiment on SK-MEL-28, with SK-MEL-5, in the experiment with UACC-257 and with UACC-62 was > 100 µM (inactive) throughout.

`CC(=O)Nc1cc2c(cc1O)CC[C@@H]1[C@@H]2CC[C@]2(C)[C@@H](O)CC[C@@H]12`: the GI50 with A549 is 36.6 µM (inactive); in the experiment on COLO 205, 30 µM (inactive); with EKVX it was 33 µM (inactive); in the experiment with HCC 2998 it was 37.2 µM (inactive); in the experiment with HCT-15, 15.3 µM; with HL-60 it was 29.6 µM (inactive). Further, the GI50 in the experiment on HOP-62 is 73.1 µM (inactive); with HOP-92 it was 41 µM (inactive); in the experiment with IGROV-1, 82.4 µM (inactive); in the experiment with KM12 it was 15 µM (inactive); in the experiment on MOLT-4 it was 34.7 µM (inactive); with NCI-H23, 47.3 µM (inactive). The GI50 in the experiment on RPMI-8226 was 45.3 µM (inactive); in the experiment on SK-MEL-28, 63.4 µM (inactive); in the experiment on SK-MEL-5, 22.4 µM (inactive); in the experiment with UACC-257, 43.4 µM (inactive).

In the case of `COc1cc(Nc2nc3cc(C(F)(F)F)ccc3n3cccc23)cc(OC)c1OC`, the GI50 with A549 is > 100 µM (inactive); in the experiment on COLO 205 it was > 100 µM (inactive); with EKVX, > 100 µM (inactive); in the experiment with HCC 2998 it was > 100 µM (inactive); in the experiment on HCT-116, > 100 µM (inactive); in the experiment with HCT-15, more than 100 µM. Also, the GI50 in the experiment with HL-60 was 0.762 µM (active); with HOP-62 it was > 100 µM (inactive); in the experiment with HOP-92, > 100 µM (inactive); in the experiment on IGROV-1, > 100 µM (inactive); with MOLT-4, 8.49 µM (inactive); in the experiment with NCI-H23, > 100 µM (inactive). Besides, the GI50 in the experiment on OVCAR-3 is > 100 µM (inactive); in the experiment with RPMI-8226, > 100 µM (inactive); in the experiment on SK-MEL-28 it was > 100 µM (inactive); in the experiment with SK-MEL-2, > 100 µM (inactive); in the experiment on SK-MEL-5, 26.7 µM (inactive); with UACC-257, > 100 µM (inactive). Besides, the GI50 in the experiment on UACC-62 is > 100 µM (inactive).

As to `Cc1ccc(/C=C2\CN(C)CC3=C2N=C(S)NC3c2ccc(C)cc2)cc1` (configuration not stated), the GI50 in the experiment with A549 was 37.2 µM (inactive); in the experiment with COLO 205 it was 19 µM (inactive); with EKVX it was 41.8 µM (inactive); in the experiment on HCC 2998 it was 41.5 µM (inactive); in the experiment with HCT-116, 21.8 µM (inactive); with HCT-15, 31.8 µM. The GI50 with HL-60 was 28.2 µM (inactive); in the experiment with HOP-62 it was 40.5 µM (inactive); with HOP-92, 18.2 µM (inactive); in the experiment on IGROV-1, 47.2 µM (inactive); with KM12, 15.4 µM (inactive); in the experiment with NCI-H23 it was 39 µM (inactive). Moreover, the GI50 in the experiment with OVCAR-3 was 22.1 µM (inactive); in the experiment on SK-MEL-28, > 100 µM (inactive); with SK-MEL-2, 51.3 µM (inactive); with SK-MEL-5, 25.7 µM (inactive); with UACC-257 it was 7 µM (inactive); in the experiment with UACC-62, 36 µM (inactive).

Consider `CS/C(=N\S(=O)(=O)c1ccc(Cl)cc1)NCCN/C(=N/S(=O)(=O)c1ccc(Cl)cc1)SC`, for which the GI50 was > 100 µM (inactive) in the experiment with COLO 205; 18.7 µM (inactive) in the experiment with EKVX; > 100 µM (inactive) with HCC 2998; > 100 µM (inactive) in the experiment on HCT-116; more than 100 µM in the experiment with HCT-15; > 100 µM (inactive) with HL-60. Further, the GI50 with HOP-62 was 20.6 µM (inactive); with HOP-92, 14.2 µM (inactive); in the experiment on IGROV-1 it was > 100 µM (inactive); in the experiment on MOLT-4 it was > 100 µM (inactive); with NCI-H23, 48 µM (inactive); with OVCAR-3 it was 32 µM (inactive). Also, the GI50 is > 100 µM (inactive) in the experiment with RPMI-8226; > 100 µM (inactive) with SK-MEL-28; 30.1 µM (inactive) in the experiment with SK-MEL-2; > 100 µM (inactive) with UACC-257; > 100 µM (inactive) with UACC-62.

For `Cc1c(C#N)c2nnn(C)c(=O)n2c1-c1ccccc1`, the GI50 in the experiment with A549 is 86.3 µM (inactive); in the experiment with EKVX it was 56 µM (inactive); in the experiment with HCC 2998, > 100 µM (inactive); in the experiment on HCT-15, more than 100 µM; in the experiment with HL-60, 30.8 µM (inactive); in the experiment with HOP-62, > 100 µM (inactive). In addition, the GI50 with HOP-92 was > 100 µM (inactive); in the experiment on KM12, 57.1 µM (inactive); with NCI-H23, 59.3 µM (inactive); with OVCAR-3, > 100 µM (inactive); in the experiment on RPMI-8226 it was 84.9 µM (inactive); with SK-MEL-28, > 100 µM (inactive). The GI50 with SK-MEL-2 is > 100 µM (inactive); with UACC-257 it was 34.4 µM (inactive); in the experiment with UACC-62 it was > 100 µM (inactive).

Consider `CC(C)OP(=O)(OC(C)C)/C(=N/Nc1ccc([N+](=O)[O-])cc1)NCCO`, for which the GI50 is 74.8 µM (inactive) with A549; > 100 µM (inactive) in the experiment with COLO 205; > 100 µM (inactive) in the experiment with EKVX; > 100 µM (inactive) in the experiment with HCC 2998; > 100 µM (inactive) with HCT-116; 72.8 µM with HCT-15. The GI50 in the experiment on HL-60 was 42.7 µM (inactive); in the experiment with HOP-62 it was > 100 µM (inactive); in the experiment on HOP-92, 64.1 µM (inactive); in the experiment on KM12 it was > 100 µM (inactive); in the experiment on MOLT-4 it was 48.9 µM (inactive); in the experiment with NCI-H23 it was > 100 µM (inactive). Besides, the GI50 in the experiment with OVCAR-3, with RPMI-8226, in the experiment on SK-MEL-28, in the experiment on SK-MEL-2, in the experiment on SK-MEL-5 and in the experiment on UACC-257 was > 100 µM (inactive) each time. In addition, the GI50 in the experiment on UACC-62 is 26.2 µM (inactive).

With `Cc1sc(Cc2ccccc2)nc1-c1ccc(N)cc1`, the GI50 in the experiment on A549 was 30.6 µM (inactive); with COLO 205, 23.1 µM (inactive); in the experiment on EKVX, 31.4 µM (inactive); with HCC 2998, 19.1 µM (inactive); with HCT-116, 20.2 µM (inactive); in the experiment with HCT-15, 19.8 µM. For the same compound, the GI50 with HL-60 was 26.2 µM (inactive); with HOP-92, 13.8 µM (inactive); in the experiment on IGROV-1, 27.9 µM (inactive); with KM12, 17 µM (inactive); in the experiment on MOLT-4 it was 13.8 µM (inactive); in the experiment on NCI-H23 it was 32.9 µM (inactive). Further, the GI50 in the experiment with OVCAR-3 was 20.7 µM (inactive); with RPMI-8226, 16.3 µM (inactive); with SK-MEL-28, 30.9 µM (inactive); in the experiment on SK-MEL-2, 17.3 µM (inactive); with SK-MEL-5, 18 µM (inactive); with UACC-257, 30 µM (inactive). In the experiment with UACC-62, the GI50 is 15.1 µM (inactive).
